Data: US20050075388A1 (published 2005)

| melting point | Structure (SMILES) |
| --- | --- |
| 166 to 169 °C | CCOC1Oc2c(c(=O)oc3ccccc23)C1c1c(O)c2ccccc2oc1=O (stereo not shown) |
| 291 to 294 °C | O=c1oc2ccccc2c(O)c1C(CCCC(c1c(O)c2ccccc2oc1=O)c1c(O)c2ccccc2oc1=O)c1c(O)c2ccccc2oc1=O |
| 299 to 302 °C | O=c1oc2cc(O)ccc2c(O)c1C(CCCC(c1c(O)c2ccc(O)cc2oc1=O)c1c(O)c2ccc(O)cc2oc1=O)c1c(O)c2ccc(O)cc2oc1=O |
| > 300 °C | O=c1oc2cc(O)cc(O)c2c(O)c1C(CCCC(c1c(O)c2c(O)cc(O)cc2oc1=O)c1c(O)c2c(O)cc(O)cc2oc1=O)c1c(O)c2c(O)cc(O)cc2oc1=O |
| > 300 °C | O=c1oc2cc(O)c(O)cc2c(O)c1C(CCCC(c1c(O)c2cc(O)c(O)cc2oc1=O)c1c(O)c2cc(O)c(O)cc2oc1=O)c1c(O)c2cc(O)c(O)cc2oc1=O |
| > 300 °C | O=Cc1ccccc1C(c1c(O)c2ccc(O)cc2oc1=O)c1c(O)c2ccc(O)cc2oc1=O |
| > 300 °C | O=CC(c1c(O)c2ccc(O)cc2oc1=O)c1c(O)c2ccc(O)cc2oc1=O |
| 286 to 288 °C | O=c1oc2ccccc2c(O)c1C(CC(c1c(O)c2ccccc2oc1=O)c1c(O)c2ccccc2oc1=O)c1c(O)c2ccccc2oc1=O |

The next lines start with the compound.

| Structure (SMILES) | melting point |
| --- | --- |
| O=c1oc2cc(O)c(O)cc2c(O)c1C1=CCOc2oc3ccccc3c(=O)c21 | 258 to 260 °C |
| O=c1oc2c(O)c(O)ccc2c(O)c1C(CCCC(c1c(O)c2ccc(O)c(O)c2oc1=O)c1c(O)c2ccc(O)c(O)c2oc1=O)c1c(O)c2ccc(O)c(O)c2oc1=O | > 300 °C |
| O=Cc1ccccc1C(c1c(O)c2ccc(O)c(O)c2oc1=O)c1c(O)c2ccc(O)c(O)c2oc1=O | > 300 °C |
| O=c1oc2ccccc2c(O)c1C1c2ccccc2Oc2c1c(=O)oc1ccccc21 (stereo not shown) | > 255 °C (dec.) |
| O=c1oc2cc(O)cc(O)c2c(O)c1C1c2ccccc2Oc2c1c(=O)oc1cc(O)cc(O)c21 (stereo not shown) | > 300 °C |
| O=c1oc2cc(O)ccc2c(O)c1-c1coc2c1c(=O)oc1cc(O)ccc12 | > 300 °C |
| COC1Oc2c(c(=O)oc3cc(O)ccc23)C1c1c(O)c2ccc(O)cc2oc1=O (stereo not shown) | > 300 °C |
| O=c1oc2cc(O)cc(O)c2c(O)c1C1=CCOc2oc3ccccc3c(=O)c21 | 254 to 256 °C |
